Series [1] deals with T1, Proteinase-activated receptor 4 (Homo sapiens) (UniProt Q96RI0).
T1 sequence (whole entry): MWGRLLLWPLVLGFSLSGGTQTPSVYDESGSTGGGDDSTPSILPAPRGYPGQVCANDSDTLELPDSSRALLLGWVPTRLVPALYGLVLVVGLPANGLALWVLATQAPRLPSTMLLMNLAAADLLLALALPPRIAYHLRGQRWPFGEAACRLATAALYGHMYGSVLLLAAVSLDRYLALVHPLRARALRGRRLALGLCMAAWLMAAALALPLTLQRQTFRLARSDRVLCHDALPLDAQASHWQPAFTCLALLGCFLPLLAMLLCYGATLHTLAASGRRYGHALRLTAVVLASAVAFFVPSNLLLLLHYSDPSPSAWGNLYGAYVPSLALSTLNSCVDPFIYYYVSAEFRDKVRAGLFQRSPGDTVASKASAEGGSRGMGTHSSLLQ
Description: Mixed competitive/non-competitive inhibition of PAR4 activating peptide domain in human platelets assessed as inhibition of alpha2bbeta3 activation level by PAC1 binding assay based by Schild analysis.

The target in series [2] is T1, Proteinase-activated receptor 4 (Homo sapiens). As to the kind of experiment: Antagonist activity against PAR4 activating peptide domain in human platelets assessed as inhibition of alpha2bbeta3 activation level at 10 uM by PAC1 binding assay.
In series [3] the target is T2, Proteinase-activated receptor 1 (Homo sapiens, UniProt P25116).
T2 sequence (P25116 whole entry): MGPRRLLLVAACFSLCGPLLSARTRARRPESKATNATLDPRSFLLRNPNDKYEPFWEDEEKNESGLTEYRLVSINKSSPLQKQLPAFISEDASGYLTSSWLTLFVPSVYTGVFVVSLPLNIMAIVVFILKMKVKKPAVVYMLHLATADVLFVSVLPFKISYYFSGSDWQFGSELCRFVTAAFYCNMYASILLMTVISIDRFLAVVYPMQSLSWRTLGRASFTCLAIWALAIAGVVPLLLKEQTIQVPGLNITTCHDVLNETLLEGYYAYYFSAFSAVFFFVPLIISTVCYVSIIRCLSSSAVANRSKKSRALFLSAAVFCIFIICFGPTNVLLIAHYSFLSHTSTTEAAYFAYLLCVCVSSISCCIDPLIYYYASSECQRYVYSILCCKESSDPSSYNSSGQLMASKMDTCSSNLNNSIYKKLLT
As to the kind of experiment: Inhibition of PAR1 (unknown origin).

The target in series [4] is T3, Proteinase-activated receptor 4 (Homo sapiens, UniProt Q96RI0).
T3 sequence (Q96RI0 whole entry): T1 sequence (whole entry)
As to the kind of experiment: Antagonist activity against PAR4 activating peptide domain in human platelets assessed as inhibition of alpha2bbeta3 activation level by PAC1 binding assay.

Series [5] in a line: Half life in Sprague-Dawley rat at 0.2 mg/kg, iv through cassette dosing up to 6 hrs by LC-MS/MS method. To be noted: in vivo.
The target in another series is Cytochrome P450 2D6 (Homo sapiens, UniProt P10635). As to the kind of experiment: Inhibition of CYP2D6 in human liver microsomes incubated for 15 mins using dextromethorphan substrate in presence of NADPH by LC-MS/MS method.
A short description of series [6]: Unbound protein binding in human plasma at 5 uM after 4 hrs by LC/MS/MS analysis.
The next series concerns the target T4, Cytochrome P450 1A2 (Homo sapiens, UniProt P05177).
T4 sequence (P05177 whole entry): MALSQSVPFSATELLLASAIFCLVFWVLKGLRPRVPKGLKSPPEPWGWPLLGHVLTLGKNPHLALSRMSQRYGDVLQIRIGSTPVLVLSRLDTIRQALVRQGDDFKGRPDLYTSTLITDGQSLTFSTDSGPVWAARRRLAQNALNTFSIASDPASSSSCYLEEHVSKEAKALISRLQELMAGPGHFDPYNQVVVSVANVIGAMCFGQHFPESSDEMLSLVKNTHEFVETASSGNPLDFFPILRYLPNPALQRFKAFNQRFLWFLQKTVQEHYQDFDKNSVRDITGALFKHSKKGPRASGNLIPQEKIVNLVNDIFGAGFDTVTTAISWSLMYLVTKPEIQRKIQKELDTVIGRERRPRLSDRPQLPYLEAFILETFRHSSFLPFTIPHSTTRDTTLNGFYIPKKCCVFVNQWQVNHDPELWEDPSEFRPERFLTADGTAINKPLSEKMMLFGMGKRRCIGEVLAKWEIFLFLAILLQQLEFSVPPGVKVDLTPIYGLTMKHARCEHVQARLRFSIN
Description: Inhibition of CYP1A2 in human liver microsomes incubated for 15 mins using phenacetin substrate in presence of NADPH by LC-MS/MS method.

In series [7] the target is T1, Proteinase-activated receptor 4 (Homo sapiens). Description: Antagonist activity at PAR4 TL domain in human platelets assessed as gamma-thrombin-induced PAC1 binding response at 10 uM preincubated for 20 mins followed by agonist addition for 20 mins by FITC based flow cytometric analysis.
Another series addresses Cytochrome P450 3A4 (Homo sapiens, UniProt P08684). Description: Inhibition of CYP3A4 in human liver microsomes incubated for 15 mins using midazolam substrate in presence of NADPH by LC-MS/MS method.
The target of series [8] is T3, Proteinase-activated receptor 4. As to the kind of experiment: Antagonist activity against PAR4 activating peptide domain in human platelets assessed as inhibition of P-selectin activation.
A short description of series [9]: Unbound protein binding in rat plasma at 5 uM after 4 hrs by LC/MS/MS analysis.
Another series addresses Cytochrome P450 2C9 (Homo sapiens, UniProt P11712). As to the kind of experiment: Inhibition of CYP2C9 in human liver microsomes incubated for 15 mins using diclofenac substrate in presence of NADPH by LC-MS/MS method.
The target in series [10] is T3, Proteinase-activated receptor 4. As to the kind of experiment: Antagonist activity at PAR4 TL domain in human platelets assessed as gamma-thrombin-induced PAC1 binding response preincubated for 20 mins followed by agonist addition for 20 mins by FITC based flow cytometric analysis.
Series [11] is described as follows: Volume of distribution in steady state in Sprague-Dawley rat at 0.2 mg/kg, iv through cassette dosing up to 6 hrs by LC-MS/MS method. The conditions noted are these: in vivo.
A short description of series [12]: Unbound protein binding in rat plasma. It counts as ADME, cell-free.
A short description of series [13]: Unbound protein binding in human plasma. In kind it is ADME, cell-free.

Active and inactive are the calls of the source. The rule behind the calls is not given here.

Chain of Cytochrome P450 3A4 (P08684 whole entry, the tested form may be a part): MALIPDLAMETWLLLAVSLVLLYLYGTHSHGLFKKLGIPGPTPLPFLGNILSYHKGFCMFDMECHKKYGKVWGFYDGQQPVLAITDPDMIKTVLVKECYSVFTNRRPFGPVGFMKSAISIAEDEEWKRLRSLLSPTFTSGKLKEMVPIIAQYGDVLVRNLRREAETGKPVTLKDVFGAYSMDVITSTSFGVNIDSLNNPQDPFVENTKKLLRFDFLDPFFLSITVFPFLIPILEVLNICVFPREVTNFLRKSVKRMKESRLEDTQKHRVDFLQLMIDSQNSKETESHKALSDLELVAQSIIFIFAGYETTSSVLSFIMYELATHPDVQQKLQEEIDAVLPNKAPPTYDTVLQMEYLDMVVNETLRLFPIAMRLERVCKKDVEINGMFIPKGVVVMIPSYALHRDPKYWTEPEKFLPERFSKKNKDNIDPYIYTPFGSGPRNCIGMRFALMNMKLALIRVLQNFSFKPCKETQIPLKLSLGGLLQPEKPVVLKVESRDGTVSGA
Chain of Cytochrome P450 2C9 (P11712 whole entry, the tested form may be a part): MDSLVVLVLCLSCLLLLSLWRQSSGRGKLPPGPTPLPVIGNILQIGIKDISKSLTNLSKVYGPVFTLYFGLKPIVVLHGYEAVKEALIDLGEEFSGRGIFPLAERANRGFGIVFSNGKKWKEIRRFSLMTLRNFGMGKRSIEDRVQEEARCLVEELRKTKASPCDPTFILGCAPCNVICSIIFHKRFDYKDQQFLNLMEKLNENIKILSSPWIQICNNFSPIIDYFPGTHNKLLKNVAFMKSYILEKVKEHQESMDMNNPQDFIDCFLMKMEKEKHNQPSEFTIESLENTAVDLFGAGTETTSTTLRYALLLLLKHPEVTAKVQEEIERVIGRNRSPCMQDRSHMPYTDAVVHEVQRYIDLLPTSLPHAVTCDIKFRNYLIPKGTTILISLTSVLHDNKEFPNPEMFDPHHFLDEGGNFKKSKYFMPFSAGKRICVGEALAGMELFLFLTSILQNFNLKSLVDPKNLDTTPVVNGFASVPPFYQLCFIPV
Chain of Cytochrome P450 2D6 (P10635 whole entry): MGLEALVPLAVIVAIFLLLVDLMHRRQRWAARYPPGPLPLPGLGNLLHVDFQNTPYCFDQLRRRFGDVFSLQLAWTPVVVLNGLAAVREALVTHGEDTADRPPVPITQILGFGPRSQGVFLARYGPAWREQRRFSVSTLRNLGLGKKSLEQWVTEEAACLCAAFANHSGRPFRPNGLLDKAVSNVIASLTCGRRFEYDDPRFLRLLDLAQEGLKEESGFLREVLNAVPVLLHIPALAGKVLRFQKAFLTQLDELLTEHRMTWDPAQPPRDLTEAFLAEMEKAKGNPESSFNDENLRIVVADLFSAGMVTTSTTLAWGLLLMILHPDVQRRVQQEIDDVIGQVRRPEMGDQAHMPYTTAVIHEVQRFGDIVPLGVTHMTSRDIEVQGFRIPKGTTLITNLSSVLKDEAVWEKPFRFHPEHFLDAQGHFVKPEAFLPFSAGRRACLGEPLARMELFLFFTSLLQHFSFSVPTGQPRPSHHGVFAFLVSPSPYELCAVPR

For `COc1ccc(-c2c(CO)n(Cc3ccccc3Cl)c3ccc(OC(F)(F)F)cc23)cn1`, in series [1], the inhibition entry was “Active”.

As to `COc1ccc(-c2c(CO)n(Cc3ccccc3Cl)c3cc(OC(F)(F)F)ccc23)cn1`, the %max in series [2] stood at 12.3%. Also, the IC50 was above 30 µM in series [3] and 0.93 µM in [4].

Regarding `OCc1c(-c2ccncc2)c2cc(OC(F)(F)F)ccc2n1Cc1ccccc1Cl`, the %max in [2] was found to be 101%. Further, the IC50 in series [4] is above 10 µM.

Take `COc1ccc(-c2c(CO)n(Cc3cccc(Cl)c3)c3ccc(OC(F)(F)F)cc23)cn1`: the %max in series [2] came to 95.5%. Besides, in [4], the IC50 was above 10 µM.

Regarding `COc1ccc2c(-c3cnc(SC)nc3)c(CO)n(Cc3ccccc3Cl)c2c1`, the %max in series [2] is 21.3%. Moreover, the IC50 in series [4] is 4.15 µM.

In the case of `COc1ccc2c(-c3ccc(OC)nc3)c(CO)n(Cc3ccccc3Cl)c2c1`, in series [2], the %max came to 4.31%. The 50% inhibitory concentration (IC50) in [4] was 1.39 µM.

For the compound `COc1nn2cc(-c3c(CO)n(Cc4ccccc4Cl)c4ccc(OC(F)(F)F)cc34)nc2s1`, in series [5], the t1/2 amounted to 6.1 h. Moreover, in series [2], the %max turned out to be 3.2%. The IC50 on Cytochrome P450 2D6 is 1.2 µM; in series [3], above 30 µM; on Cytochrome P450 1A2, above 30 µM; on Cytochrome P450 3A4 it was above 30 µM; in series [4], 0.18 µM; in series [8], 0.132 µM. In addition, the figures for the IC50 (at Cytochrome P450 2C9; in series [10]) were 11.2 µM and 4.35 µM, respectively. In addition, the Fu amounted to 0.004 in [6] and 0.003 in series [9]. In addition, the inhibition in series [7] came to 39.4%. For the same compound, in [1], the inhibition entry is “Active”. The compound further displayed a Vdss in series [11] of 21.1 L/kg.

With `COc1ccc(-c2c(CO)n(Cc3ccccc3)c3ccc(OC(F)(F)F)cc23)cn1`, the %max in [2] worked out at 53.4%. Moreover, the IC50 in series [4] was above 10 µM.

Turning to `CCOC(=O)c1ccc(-c2nn(Cc3ccccc3)c3ccccc23)cc1`, the PB entry in series [12] and in [13] was “Unstable” in each case.

For the compound `OCc1c(-c2cncnc2)c2cc(OC(F)(F)F)ccc2n1Cc1ccc(F)cc1F`, in series [2], the %max was found to be 96.1%. Besides, in series [4], the IC50 was above 10 µM.

Regarding `COc1ncc(-c2c(CO)n(Cc3ccc(F)cc3F)c3ccc(OC(F)(F)F)cc23)cn1`, the %max in [2] came out at 53.6%.

With `CSc1ncc(-c2c(CO)n(Cc3ccccc3Cl)c3cc(OC(F)(F)F)ccc23)cn1`, the %max in series [2] is 5.57%. The IC50 in series [3] is above 30 µM; in series [4], 0.21 µM.

As to `COc1ccc(-c2c(CO)n(C)c3ccc(C(F)(F)F)cc23)cn1`, in [2], the %max was found to be 106%. For the same compound, the IC50 in series [4] is above 10 µM.

In the case of `CCOc1ncc(-c2c(CO)n(Cc3ccccc3Cl)c3ccc(OC(F)(F)F)cc23)cn1`, the %max in series [2] was 35.4%. Further, the IC50 in series [4] was 4.91 µM.

Consider `COc1ccc(-c2c(CO)n(Cc3ccccc3F)c3ccc(OC(F)(F)F)cc23)cn1`, for which the %max in series [2] came to 89%. Besides, the IC50 in [4] was above 10 µM.

Consider `COc1ccc(-c2c(CO)n(Cc3cccc(F)c3)c3ccc(OC(F)(F)F)cc23)cn1`, for which the %max in series [2] turned out to be 80.6%. In [4], the IC50 was above 10 µM.

Take `COc1ccc(-c2c(CO)n(Cc3ccc(F)cc3F)c3ccc(OC(F)(F)F)cc23)cn1`: the %max in series [2] worked out at 19.7%. In addition, the half-inhibitory concentration (IC50) in series [3] was above 30 µM; in [4], 5.11 µM.

For `COc1ccc(-c2c(CO)n(Cc3cccc(Br)c3)c3ccc(OC(F)(F)F)cc23)cn1`, the %max in [2] was determined as 27.1%. Further, the IC50 in series [4] is 2.19 µM.

Take `COc1ccc(-c2c(CO)n(Cc3cccc(C(F)(F)F)c3)c3ccc(OC(F)(F)F)cc23)cn1`: the %max in [2] is 19.7%. For the same compound, the IC50 in series [4] was 4.82 µM.

For the compound `CSc1ncc(-c2c(CO)n(Cc3ccc(F)cc3F)c3ccc(OC(F)(F)F)cc23)cn1`, the %max in series [2] was found to be 15.6%. In series [4], the IC50 is 1.49 µM.

For the compound `COc1ncc(-c2c(CO)n(Cc3ccccc3Cl)c3ccc(OC(F)(F)F)cc23)cn1`, the %max in series [2] was found to be 7.95%. Besides, in series [4], the IC50 turned out to be 1.5 µM.

As for `COc1cccc(Cn2c(CO)c(-c3ccc(OC)nc3)c3cc(C(F)(F)F)ccc32)c1`, the %max in series [2] is 108%. Also, the IC50 in [4] was above 10 µM.

Turning to `CCOC(=O)c1ccc(-c2cn(Cc3ccccc3)c3ccccc23)cc1`, the PB result in series [12] and in [13] was “Unstable” throughout.

Consider `CCOc1ccc2c(-c3ccc(OC)nc3)c(CO)n(Cc3ccccc3Cl)c2c1`, for which the %max in series [2] was determined as 19.7%. For the same compound, the IC50 in [4] turned out to be 3.76 µM.
